In PMC12508576, “Implementing a trilineage differentiation in the ReproTracker assay for improved teratogenicity assessment” (Frontiers in Toxicology, 2025):
Read-outs that look alike come from different tables or passages of the source.

Assays:
[1] = system: hiPSCs differentiating into cardiomyocyte-like cells; assay: ReproTracker cardiomyocyte differentiation assay
Method: (§1) Prior to differentiation, the cells were harvested and dissociated into single cells using Gibco™ TrypLE™ Select (ThermoFisher Scientific; Bleiswijk, Netherlands) for 5 min at 37 °C. Cells were seeded in Matrigel™-coated 24-well plates (ThermoFisher Scientific) in mTeSR™1 containing RevitaCell™ Supplement (ThermoFisher Scientific). […] The cells were cultured in this medium until D3. From D3 until the end of the differentiation protocol (D13) (one-step protocol), cells were cultured in N2B27 medium without ROCK inhibitor or LDN193189. In the case of the replating protocol, cells were replated at D7 and grown in the same medium until day 13. At the end of the differentiation, morphology of the cells was assessed using an Operetta CLS (Revvity) instrument. The expected morphology for each of the lineages, to ensure data acceptance and correct differentiations, is further described in Section 2.9 of the methods section. The trilineage differentiation was replicated in 96-well plates (ThermoFisher Scientific and Revvity Phenoplate) using the same differentiation protocols with an adapted number of cells for the seeding. And termination at D14.
(§2) Cells were harvested, and total RNA was isolated using the Maxwell® RSC simply RNA Cells Kit (cat. no.: #AS1390; Promega) on a Maxwell automated purification instrument (Maxwell RSC 48; Promega). […] Each individual primer was paired with its corresponding fluorophore and quencher and adjusted accordingly depending on gene abundance. Primer and probe sequences are described in Supplementary Table S1.
(§3) Data acceptance was based on the appropriate expression of the assessed biomarker genes in the differentiated populations, at appropriate times during differentiation. Failure to observe the expected temporal expression of key, lineage-specific biomarkers, during the cell fate choices associated with each differentiation protocol, would result in the experiment being invalidated.
(§4) To follow morphological changes throughout the hepatocyte and neural differentiation protocol, brightfield images of the cells were acquired after each medium refresh using an iRiS digital cell imaging microscope (Logos Biosystems) or an Operetta CLS (Revvity) instrument. Images were scored based on visual assessment. Cardiac contractability of cardiomyocytes was evaluated visually using an iRiS digital cell imaging microscope (Logos Biosystems).
(§5) Morphologically, cardiomyocytes are expected to group in fiber-like 3D structures that distribute throughout the entire plate. Aside from morphology, an additional criterion for cardiomyocyte differentiation in each experimental setup is for the contracting mature cardiomyocyte cultures exposed to solvent controls, to reach 75%. […] Neural rosettes are recognized by well-defined cell boundaries and multi-layered cultures. Functional/morphological assessment was completed independently from biomarker data analyses. Morphology scores were confirmed by a second person. Failure to observe the anticipated cell morphology/functionality throughout differentiation would result in invalidation of the experiment. Disruption in the morphology of cardiomyocytes is described as a lack of 3D-fibre-like structures in the cultures as well as a clear lack of contractions. Morphologically aberrant hepatocytes are characterized by a lack of polygonal structures with smaller cytoplasm that in the control cultures and the formation of dark cell-dense structures, commonly indicative of clumps of dead cells with big empty spaces between cell colonies.

[2] = system: hiPSCs differentiating into hepatocyte-like cells; assay: ReproTracker hepatocyte differentiation assay
Method: as §1, §2, §3, §4, §5

[3] = system: hiPSCs differentiating into neural rosette-like cells
Method: as §1, §2, §3, §4, §5

[4] = system: hiPSCs trilineage differentiation (cardiomyocytes, hepatocytes, neural rosette-like cells)
Description: (§6) In ReproTracker, teratogenicity prediction of test compounds is based on a Weight of Evidence (WoE) approach, which considers both the significant decrease in biomarker expression and the morphological/functional changes following exposure to test compounds throughout differentiation assays.
(§7) This threshold, for any given biomarker, is defined as the average minus one time the standard deviation (SD) of the biomarker expression levels in solvent-exposed control cultures throughout the experiment. Reduced expression of the selected biomarkers below the set threshold in a concentration-dependent manner, upon exposure to a minimum of 2 consecutive non-cytotoxic concentrations would be considered significant (noted as +). A decrease in expression below the threshold without a clear dose-response would lead to an equivocal classification (noted as (+)). An increase in expression or a lack of response would be considered negative (noted as -). Disruption of morphology/functionality of the cultures upon compound exposure at the two highest tested concentrations in all biological replicates is considered as a morphological disruption (noted as +). Absence of significant effects results in a negative score (noted as -).
(§8) For each differentiation assay, the expression of two biomarkers and a morphological/functional read-out are considered. In the hepatocyte and cardiomyocyte differentiation, FOXA2 and BMP4 are considered germ-layer-specific biomarkers, while AFP and MYH6 are considered cell-specific biomarkers, respectively. When applying the WoE approach, the cell-specific biomarkers in hepatocyte and cardiomyocyte differentiation are given higher weight compared to the germ-layer specific biomarkers and morphology/functionality. For the neural differentiation, both PAX6 and NESTIN are given equal weight as they are considered cell-specific markers. In this case, both biomarkers are given higher weight than the morphological read-out.
(§9) Every measurement/observation is assigned a score (positive, negative, or equivocal). […] In the ReproTracker assay, a compound is identified as a teratogen if it receives a positive score in at least one of the trilineage differentiation assays (cardiomyocyte, hepatocyte, or neural differentiation). […] If neither biomarker expression levels nor morphology/functionality are affected in any of the differentiation assays, the response is considered negative.

[5] = cited from earlier work
[6] = system: hiPSCs trilineage differentiation (cardiomyocytes, hepatocytes, neural rosette-like cells); assay: ReproTracker trilineage differentiation, overall teratogenicity prediction; conditions: lowest tested concentration with significant decrease of at least one biomarker, trilineage assay; 'N.d. up to x' given as > x
Description: as §6, §7, §8, §9

[7] = system: hiPSCs differentiating into cardiomyocyte-like cells; conditions: lineage call; footnote b: previously published data; ref Jamalpoor et al., 2022; cited from earlier work
[8] = system: hiPSCs differentiating into hepatocyte-like cells; conditions: cited from earlier work
undifferentiated hiPSCs = assay: Concentration-range selection and cytotoxicity assessment (AlamarBlue); conditions: lowest concentration that induced a maximum of 20% cytotoxicity in hiPSCs, 7 days
Method: In short, hiPSCs were exposed to 20 consecutive concentrations of the test compounds using 1 mM or the maximum soluble concentration as the top concentration. Test compounds were added to the medium prior to the refreshes at D0 and D3. Cytotoxicity was estimated at D7; upon completion of the experiments, cells were incubated with resazurin solution (0.01 mg/mL in PBS) and measured absorbance (excitation 530 nm and emission 590 nm). Results were normalized against vehicle controls (0.1% v/v DMSO).
All compounds were tested at five consecutive concentrations in two-fold dilution steps. The top concentration was determined as the lowest concentration that induced a maximum of 20% cytotoxicity in the concentration range finding experiments. Compounds were then diluted 2-fold using serial dilutions.
Data acceptance for dose-range finding experiments was based on the response to positive and negative assay controls, and compound solubility and cytotoxicity. […] Concentrations of compound(s) inducing cytotoxicity and therefore reducing cell survival below 80% were excluded from further testing in differentiation assays.
Thus, to determine cytotoxicity of the test compounds, undifferentiated hiPSCs were exposed to 20 consecutive concentrations at 2-fold dilutions for 7 days. The lowest concentration that induced a maximum of 20% cytotoxicity in the concentration range finding experiment was applied as top concentration for the differentiation experiments.

[9] = read-out: Human therapeutic cmax, Table 1 (R3 I (2021), Schulz et al. (2020) and others)
[10] = lineage call, footnote b: previously published data, ref Jamalpoor et al., 2022
[11] = lineage call (positive/equivocal/negative)

| ReproTracker results Cardiomyocyte-like cells [1] | ReproTracker results Hepatocyte-like cells [2] | ReproTracker results Neural rosette-like cells [3] | SMILES | LOAEL compared with respective human therapeutic Cmax ([4]; human) | Cmax [5, 9] | ReproTracker results LOAEL [6] | ReproTracker results LOAEL ([4]; human) | ReproTracker results Cardiomyocyte-like cells [7] | ReproTracker results Hepatocyte-like cells [8, 10] | further results |
| --- | --- | --- | --- | --- | --- | --- | --- | --- | --- | --- |
| – | – | Negative | CCCCCCCCc1ccc(CCC(N)(CO)CO)cc1 [Fingolimod] | higher | 0.003 to 0.05 µM | – | ≤0.25 µM | Positive | Positive | – |
| – | – | Negative | CCN(CC)CCNC(=O)c1cc(Cl)c(N)cc1OC [Metoclopramide] | – | 0.03 to 0.5 µM | N.d. up to 62.5 µM | – | Negative | Negative | – |
| Negative | Negative | Positive | C[C@@H]1C[C@H]2[C@@H]3CCC4=CC(=O)C=C[C@]4(C)[C@@]3(F)[C@@H](O)C[C@]2(C)[C@@]1(O)C(=O)CO [Dexamethasone] | – | 0.1 to 0.7 µM | – | 1.95 µM | – | – | – |
| Negative | Positive | Negative | CC(=O)Oc1ccccc1C(=O)O [Aspirin] | equal to or below | 111 to 1110 µM | – | 500 µM | – | – | – |
| – | – | Negative | N[C@@H](CC(=O)N1CCn2c(nnc2C(F)(F)F)C1)Cc1cc(F)c(F)cc1F [Sitagliptin] | – | 0.1 to 0.9 µM | N.d. up to 1000 µM | – | Negative | Negative | – |
| – | – | Negative | Cc1ncc(C[n+]2csc(CCO)c2C)c(N)n1 [Thiamine] | – | 0.4 µM | N.d. up to 1000 µM | – | Negative | Negative | – |
| – | – | Negative | Nc1nc2ncc(CNc3ccc(C(=O)N[C@@H](CCC(=O)O)C(=O)O)cc3)nc2c(=O)[nH]1 [Folic acid] | – | 0.002 to 0.01 µM | N.d. up to 1.95 µM | – | – | Negative | – |
| Negative | Positive | Positive | O=C1NC(=O)C(c2ccccc2)(c2ccccc2)N1 [Phenytoin] | equal to or below | 39.6 to 79.3 µM | – | 31.3 µM | – | – | NESTIN gene expression at D13 [3]: without affecting; PAX6 gene expression at D7 [3]: downregulated; morphology of neural rosette-like cells [3]: disrupted |
| Negative | Negative | Negative | CN(Cc1cnc2nc(N)nc(N)c2n1)c1ccc(C(=O)N[C@@H](CCC(=O)O)C(=O)O)cc1 [Methotrexate] | equal to or below | 0.02 to 1.1 µM | – | N.d. up to 0.122 µM | – | – | top concentration for the differentiation experiments (undifferentiated hiPSCs): 0.1 µM |
| – | – | Negative | CC1(C)S[C@@H]2[C@H](NC(=O)[C@H](N)c3ccc(O)cc3)C(=O)N2[C@H]1C(=O)O [Amoxicillin] | – | 1.4 to 41 µM | – | – | Negative | – | – |
| Negative | Negative | Positive | OC(Cn1cncn1)(Cn1cncn1)c1ccc(F)cc1F [Fluconazole] | – | 6.5 to 19.6 µM | – | 125 µM | – | – | NESTIN gene expression at D13 [3]: decreased; PAX6 gene expression at D7 [3]: decreased |
| Negative | Negative | Negative | O=c1[nH]cc(F)c(=O)[nH]1 [5-Fluorouracil] | – | 0.4 to 2.3 µM | N.d. up to 1.3 µM | – | – | – | top concentration for the differentiation experiments (undifferentiated hiPSCs): 1 µM |

More lines, now with the values behind:

| SMILES | ReproTracker results Cardiomyocyte-like cells [1] | ReproTracker results Hepatocyte-like cells [2] | ReproTracker results Neural rosette-like cells [3] | LOAEL compared with respective human therapeutic Cmax ([4]; human) | Cmax [5, 9] | ReproTracker results LOAEL [6] | ReproTracker results LOAEL ([4]; human) | ReproTracker results Cardiomyocyte-like cells [7] | ReproTracker results Hepatocyte-like cells [8, 10] | further results |
| --- | --- | --- | --- | --- | --- | --- | --- | --- | --- | --- |
| NC(=O)NO [Hydroxyurea] | Negative | Positive | Positive | equal to or below | 263 µM | ≤2.0 µM | – | – | – | – |
| COc1cc(C)c(/C=C/C(C)=C/C=C/C(C)=C/C(=O)O)c(C)c1C [Acitretin] | – | – | – | equal to or below | 0.03 to 0.9 µM | ≤0.2 µM | – | – | – | ReproTracker results Cardiomyocyte-like cells [1, 11]: Positive; ReproTracker results Hepatocyte-like cells [2, 11]: Positive; ReproTracker results Neural rosette-like cells [3, 11]: Positive |
| Cc1ccc(NC(=O)c2ccc(CN3CCN(C)CC3)cc2)cc1Nc1nccc(-c2cccnc2)n1 [Imatinib] | Negative | – | Positive | equal to or below | 1.5 µM | – | 0.1 µM | – | – | ReproTracker results Hepatocyte-like cells [2, 11]: Positive |
| CC(O)CO (stereo not drawn) [1,2-propylene glycol] | – | – | Negative | – | 0.3 to 3.1 µM | N.d. up to 1000 µM | – | Negative | Negative | – |
| Nc1ccn([C@@H]2O[C@H](CO)[C@@H](O)[C@@H]2O)c(=O)n1 [Cytarabine] | Positive | Negative | Positive | equal to or below | 0.2 to 2.1 µM | – | – | – | – | ReproTracker results LOAEL [4]: Positive |
| Cn1cc[nH]c1=S [Methimazole] | – | – | Positive | – | 4.4 to 20.2 µM | – | – | Positive | – | – |
| CC1=C(/C=C/C(C)=C/C=C/C(C)=C\C(=O)O)C(C)(C)CCC1 [Isotretinoin] | Positive | Positive | Positive | equal to or below | 0.004 to 0.008 µM | – | ≤0.0041 µM | – | – | – |
| NS(=O)(=O)c1cc2c(cc1Cl)NCNS2(=O)=O [Hydrochlorothiazide] | – | – | Negative | – | 0.1 to 0.2 µM | – | – | Positive | Positive | – |
| CC(=O)CC(c1ccccc1)c1c(O)c2ccccc2oc1=O (stereo not drawn) [Warfarin] | – | – | – | – | – | 62.5 to 250 µM | – | – | – | ReproTracker results Neural rosette-like cells [3, 11]: Negative; ReproTracker results Hepatocyte-like cells [8]: Positive; Cmax ([5]; human, in vivo): 3.2 to 9.7 µM |
